In experiment [1] the test system is parasitoids (wasps) (Cotesia glomerate). The experiment is described as follows: Attraction of parasitoids (wasps) to cabbage plants treated with β-glucosidase. It counts as in vivo. As to conditions: amount of β-glucosidase in 25 μl. The source says:
We have discovered that generic defense mechanisms are elicited by herbivores such as caterpillars. In this example, a caterpillar (Pieris brassicae) attacked a cabbage plant releasing a defensive mixture of volatiles which attract parasitic wasps (Cotesia glomerate) which then attack and destroy the caterpillars. The caterpillar gut regurgitant contains enzymatic β-glucosidase which elicits the mixture of volatiles referred to above. Commercial β-glucosidase performs in a similar manner.
Cabbage (eight weeks old) and P. Brassicae (caterpillar) and parasitoids (wasps) were reared according to the method of Steinberg S. et al., Entomol. Exp. Appl 63 163-175 (1992). […] Ion chromatograms identified […], 1-hexanol, E-2-hexene 1-YL acetate as major components of the volatiles released by the cabbage plants. This experiment illustrates another specific example (compare to H. zea) of evolutionary arms race wherein an elicitor-antagonist biological system focuses on a defensive enzyme reaction.

The subject of experiment [2] is transgenic tobacco plant leaves. As to conditions: transgenic tobacco leaves starting at 0.05 mg per gram; one GOX-leaf bruising treatment.
From the text: One group of the tobacco plants was exposed to H. zea neonates for a three day period during the growing season. A second group of the tobacco plants was exposed to H. zea neonates multiple times each for a three-day period during the growing season. A third group of tobacco plants was isolated from H. zea neonates for establishing a control. The leaves were harvested at the end of the growing season and the caterpillars were removed. The tobacco leaves were air dried and processed. Each of the dried tobacco leaves were treated and extracted with 10 ml of 25 mM sodium phosphate buffer at 30° C. for about 24 hours at constant agitation.
The subject of experiment [3] is tobacco leaves (Nicotiana tabacum). The experiment is described as follows: Treatment of individual tobacco leaves with test solutions, nicotine reduction. Format: in vivo. As to conditions: incubated for about 3 days.

As for β-glucosidase, the “attraction of parasitoids (wasps)” value in experiment [1] was “clearly resulted in the attraction of parasitoids”.
Take glucose oxidase [Active GOX]: in experiment [2], the “nicotine content after treatment” value is on record as 0.01 mg of nicotine/per gram. In experiment [3], the “Reduction of Nicotine” value lay in the range of 0.60 to 0.70 mg/g.

For the origin of these results see patent US20050113256A1, “Methods of reducing the nicotine content of tobacco plants and tobacco plants obtained thereby” (priority 2003, published 2005).
